Values quoted from earlier work in patent US20210023029A1, “EDASALONEXENT DOSING REGIMEN FOR TREATING MUSCULAR DYSTROPHY” (Catabasis Pharmaceuticals, Inc., priority 2017, published 2021).

System: mdx mice
Settings: long-term studies on mdx mice; cited from earlier work

In the case of `CC/C=C\C/C=C\C/C=C\C/C=C\C/C=C\CCCC(=O)NCCNC(=O)c1ccccc1O` [CAT-1041], the “muscle function, skeletal muscle weight and muscle fibrosis” value is listed as “preserves muscle function, increases skeletal muscle weight, and reduces muscle fibrosis”.
